In PubChem BioAssay (NCI):
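Results reflect a 48-hour exposure of cells in 96-well plates to compound at five concentrations. GI50 marks 50% less growth. TGI is the concentration that stops growth completely.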

Experiments:
Assay in all cases: NCI-60 cell line screen, 48 h
MCF7 breast = tested on: MCF7 breast
A549 NSCLC = tested on: A549 NSCLC
NCI/ADR-RES ovarian = tested on: NCI/ADR-RES ovarian
BT-549 breast = tested on: BT-549 breast
KM12 colon = tested on: KM12 colon
NCI-H226 lung = tested on: NCI-H226 lung
SR leukemia = tested on: SR leukemia
NCI-H23 lung = tested on: NCI-H23 lung
HCT-15 colon = tested on: HCT-15 colon
RXF 393 renal = tested on: RXF 393 renal
SN12C renal = tested on: SN12C renal
HOP-62 NSCLC = tested on: HOP-62 NSCLC
EKVX NSCLC = tested on: EKVX NSCLC
SK-MEL-2 melanoma = tested on: SK-MEL-2 melanoma
LOX IMVI melanoma = tested on: LOX IMVI melanoma
HOP-92 NSCLC = tested on: HOP-92 NSCLC
SF-295 CNS = tested on: SF-295 CNS
OVCAR-4 ovarian = tested on: OVCAR-4 ovarian
RPMI-8226 leukemia = tested on: RPMI-8226 leukemia
UACC-257 melanoma = tested on: UACC-257 melanoma
COLO 205 colon = tested on: COLO 205 colon
HL-60(TB) leukemia = tested on: HL-60(TB) leukemia
TK-10 renal = tested on: TK-10 renal
HS 578T breast = tested on: HS 578T breast
IGROV1 ovarian = tested on: IGROV1 ovarian
SK-MEL-5 melanoma = tested on: SK-MEL-5 melanoma
OVCAR-3 ovarian = tested on: OVCAR-3 ovarian
MALME-3M melanoma = tested on: MALME-3M melanoma
A498 renal = tested on: A498 renal
NCI-H460 lung = tested on: NCI-H460 lung
ACHN renal = tested on: ACHN renal
HCT-116 colon = tested on: HCT-116 colon
MOLT-4 leukemia = tested on: MOLT-4 leukemia
UO-31 renal = tested on: UO-31 renal
SF-539 CNS = tested on: SF-539 CNS
CCRF-CEM leukemia = tested on: CCRF-CEM leukemia
M14 melanoma = tested on: M14 melanoma
SNB-19 CNS = tested on: SNB-19 CNS
HT29 colon = tested on: HT29 colon
MDA-MB-435 = tested on: MDA-MB-435
SF-268 CNS = tested on: SF-268 CNS
SW-620 colon = tested on: SW-620 colon
DU-145 prostate = tested on: DU-145 prostate
SNB-75 CNS = tested on: SNB-75 CNS
K-562 leukemia = tested on: K-562 leukemia
786-0 renal = tested on: 786-0 renal
OVCAR-5 ovarian = tested on: OVCAR-5 ovarian
T-47D breast = tested on: T-47D breast
CAKI-1 renal = tested on: CAKI-1 renal
UACC-62 melanoma = tested on: UACC-62 melanoma
U251 CNS = tested on: U251 CNS
NCI-H522 lung = tested on: NCI-H522 lung
MDA-MB-231 breast = tested on: MDA-MB-231 breast
PC-3 prostate = tested on: PC-3 prostate
SK-MEL-28 melanoma = tested on: SK-MEL-28 melanoma
HCC-2998 colon = tested on: HCC-2998 colon

Compound: CCOC(=O)c1c(NCC(=O)Nc2cccc([N+](=O)[O-])c2)sc(C(C)=O)c1C
- GI50 (MCF7 breast): 1.44 µM
- TGI (MCF7 breast): 5.21 µM
- GI50 (A549 NSCLC): 2.57 µM
- TGI (A549 NSCLC): 8.02 µM
- GI50 (NCI/ADR-RES ovarian): 1.77 µM
- TGI (NCI/ADR-RES ovarian): 5.39 µM
- GI50 (BT-549 breast): 1.44 µM
- TGI (BT-549 breast): 4.85 µM
- GI50 (KM12 colon): 2.61 µM
- TGI (KM12 colon): 7.99 µM
- GI50 (NCI-H226 lung): 1.64 µM
- TGI (NCI-H226 lung): 4.46 µM
- GI50 (SR leukemia): 0.646 µM
- TGI (SR leukemia): > 100 µM
- GI50 (NCI-H23 lung): 1.14 µM
- TGI (NCI-H23 lung): 3.45 µM
- GI50 (HCT-15 colon): 0.845 µM
- TGI (HCT-15 colon): 5.35 µM
- GI50 (RXF 393 renal): 1.21 µM
- TGI (RXF 393 renal): 2.51 µM
- GI50 (SN12C renal): 1.84 µM
- TGI (SN12C renal): 5.4 µM
- GI50 (HOP-62 NSCLC): 2.5 µM
- TGI (HOP-62 NSCLC): 6.58 µM
- GI50 (EKVX NSCLC): 2.1 µM
- TGI (EKVX NSCLC): 5.52 µM
- GI50 (SK-MEL-2 melanoma): 2.01 µM
- TGI (SK-MEL-2 melanoma): 4.84 µM
- GI50 (LOX IMVI melanoma): 0.411 µM
- TGI (LOX IMVI melanoma): 1.67 µM
- GI50 (HOP-92 NSCLC): 1.68 µM
- TGI (HOP-92 NSCLC): 4.56 µM
- GI50 (SF-295 CNS): 2.17 µM
- TGI (SF-295 CNS): 5.11 µM
- GI50 (OVCAR-4 ovarian): 2.23 µM
- TGI (OVCAR-4 ovarian): 6.36 µM
- GI50 (RPMI-8226 leukemia): 2.51 µM
- TGI (RPMI-8226 leukemia): 6.79 µM
- GI50 (UACC-257 melanoma): 2.5 µM
- TGI (UACC-257 melanoma): 7.47 µM
- GI50 (COLO 205 colon): 1.65 µM
- TGI (COLO 205 colon): 4.6 µM
- GI50 (HL-60(TB) leukemia): 2.57 µM
- TGI (HL-60(TB) leukemia): 14.2 µM
- GI50 (TK-10 renal): 2.1 µM
- TGI (TK-10 renal): 6.81 µM
- GI50 (HS 578T breast): 2.05 µM
- TGI (HS 578T breast): 5.97 µM
- GI50 (IGROV1 ovarian): 0.414 µM
- TGI (IGROV1 ovarian): 1.62 µM
- GI50 (SK-MEL-5 melanoma): 1.68 µM
- TGI (SK-MEL-5 melanoma): 3.17 µM
- GI50 (OVCAR-3 ovarian): 2.29 µM
- TGI (OVCAR-3 ovarian): 5.69 µM
- GI50 (MALME-3M melanoma): 1.51 µM
- TGI (MALME-3M melanoma): 3.06 µM
- GI50 (A498 renal): 1.7 µM
- TGI (A498 renal): 3.31 µM
- GI50 (NCI-H460 lung): 1.21 µM
- TGI (NCI-H460 lung): 3.26 µM
- GI50 (ACHN renal): 1.5 µM
- TGI (ACHN renal): 2.9 µM
- GI50 (HCT-116 colon): 1.71 µM
- TGI (HCT-116 colon): 5.02 µM
- GI50 (MOLT-4 leukemia): 0.57 µM
- TGI (MOLT-4 leukemia): > 100 µM
- GI50 (UO-31 renal): 1.27 µM
- TGI (UO-31 renal): 2.62 µM
- GI50 (SF-539 CNS): 1.82 µM
- TGI (SF-539 CNS): 4.48 µM
- GI50 (CCRF-CEM leukemia): 0.585 µM
- TGI (CCRF-CEM leukemia): > 100 µM
- GI50 (M14 melanoma): 1.5 µM
- TGI (M14 melanoma): 3.28 µM
- GI50 (SNB-19 CNS): 2.31 µM
- TGI (SNB-19 CNS): 6.5 µM
- GI50 (HT29 colon): 0.797 µM
- TGI (HT29 colon): 3.26 µM
- GI50 (MDA-MB-435): 1.68 µM
- TGI (MDA-MB-435): 3.1 µM
- GI50 (SF-268 CNS): 2.11 µM
- TGI (SF-268 CNS): 5.16 µM
- GI50 (SW-620 colon): 0.491 µM
- TGI (SW-620 colon): 7.69 µM
- GI50 (DU-145 prostate): 2.21 µM
- TGI (DU-145 prostate): 5.91 µM
- GI50 (SNB-75 CNS): 2.03 µM
- TGI (SNB-75 CNS): 5.61 µM
- GI50 (K-562 leukemia): 1.89 µM
- TGI (K-562 leukemia): > 100 µM
- GI50 (786-0 renal): 1.97 µM
- TGI (786-0 renal): 4.21 µM
- GI50 (OVCAR-5 ovarian): 1.42 µM
- TGI (OVCAR-5 ovarian): 4.19 µM
- GI50 (T-47D breast): 2.31 µM
- TGI (T-47D breast): 6.71 µM
- GI50 (CAKI-1 renal): 1.27 µM
- TGI (CAKI-1 renal): 3.65 µM
- GI50 (UACC-62 melanoma): 0.574 µM
- TGI (UACC-62 melanoma): 2.14 µM
- GI50 (U251 CNS): 2.36 µM
- TGI (U251 CNS): 9.14 µM
- GI50 (NCI-H522 lung): 1.28 µM
- TGI (NCI-H522 lung): 4.12 µM
- GI50 (MDA-MB-231 breast): 2.12 µM
- TGI (MDA-MB-231 breast): 4.77 µM
- GI50 (PC-3 prostate): 0.794 µM
- TGI (PC-3 prostate): 3.63 µM
- GI50 (SK-MEL-28 melanoma): 1.78 µM
- TGI (SK-MEL-28 melanoma): 3.71 µM
- GI50 (HCC-2998 colon): 1.98 µM
- TGI (HCC-2998 colon): 3.91 µM
